# Laboratory results published in US9839642B2, “Beta-tetrazolyl-propionic acids as metallo-beta-lactamase inhibitors” (priority 2014, dated 2017).
# Key:
# IMP-1 = IMP-1 (Serratia marcescens, UniProt P52699); test: Enzyme activity: determination of IC50, fluorescence assay with CCF2-FA substrate; format: biochemical; settings: IMP-1 enzyme 2 pM, CCF2-FA 1.25 μM, 2 hours at 25° C.; read-out: IMP1 IC50
# Summary of the method: (§1)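 Enzyme at 1 pM (NDM-1), 2 pM (IMP-1) or 30 pM (VIM-1) was incubated with inhibitor (20 μM to 0.00063 μM) and 1.25 μM CCF2-FA in 100 mM KH2PO4 pH 7, 0.005% Tween-20, 10 μM ZnSO4 for 2 hours at 25° C. Fluorescence was read at ex 405/em 460 nm; IC50 from 4-parameter fit.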
# NDM-1 = NDM-1 (Klebsiella pneumoniae, UniProt C7C422); test: as above; format: biochemical; settings: NDM-1 enzyme 1 pM, CCF2-FA 1.25 μM, 2 hours at 25° C.; read-out: NDM1 IC50
# Summary of the method: as §1
# VIM-1 = VIM-1 (Pseudomonas aeruginosa, UniProt A0A0F7KYQ8); test: as above; format: biochemical; settings: VIM-1 enzyme 30 pM, CCF2-FA 1.25 μM, 2 hours at 25° C.; read-out: VIM1 IC50
# Summary of the method: as §1
# [1] = tested on: Escherichia coli expressing NDM-1 (CLB30016); test: Antibiotic potentiation activity: synergistic concentration (MITC95) with imipenem, growth by OD600; format: cell-based; settings: E. coli CLB30016 (NDM-1), 95% inhibition of growth
# Summary of the method: (§2)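 Colonies from overnight agar plates (35 °C) were suspended in saline and diluted 1:100 into 1.1× CAMHB. Inhibitor (final 200 μM to 0.195 μM) was combined with imipenem at 1 or 4 μg/ml, incubated 22–24 h at 35 °C, and absorbance read; MITC95 is the lowest inhibitor concentration giving 95% growth inhibition.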
# [2] = tested on: Klebsiella pneumoniae expressing VIM-1 (IHMA599644); test: as above; format: cell-based; settings: K. pneumoniae IHMA599644 (VIM-1), 95% inhibition of growth
# Summary of the method: as §2
# [3] = tested on: Serratia marcescens expressing IMP-1 (CL5741); test: as above; format: cell-based; settings: S. marcescens CL5741 (IMP-1), 95% inhibition of growth
# Summary of the method: as §2
# Chain of NDM-1 (C7C422 29-270, looked up, species assumed): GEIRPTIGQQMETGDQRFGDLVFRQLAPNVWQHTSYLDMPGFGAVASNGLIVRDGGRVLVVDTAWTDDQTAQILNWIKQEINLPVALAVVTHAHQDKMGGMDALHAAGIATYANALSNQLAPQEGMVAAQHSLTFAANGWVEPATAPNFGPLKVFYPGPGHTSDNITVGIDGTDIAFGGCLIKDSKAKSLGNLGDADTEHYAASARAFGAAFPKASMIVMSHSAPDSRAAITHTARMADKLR
# Chain of IMP-1 (P52699 19-246, looked up, species assumed): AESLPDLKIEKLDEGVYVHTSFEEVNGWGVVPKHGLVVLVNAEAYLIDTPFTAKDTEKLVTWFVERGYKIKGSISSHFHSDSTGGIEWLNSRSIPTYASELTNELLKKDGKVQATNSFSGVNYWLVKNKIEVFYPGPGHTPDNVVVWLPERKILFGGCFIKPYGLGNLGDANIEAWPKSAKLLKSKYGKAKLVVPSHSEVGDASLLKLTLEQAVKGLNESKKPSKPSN
SMILES,IC50 (IMP-1) [nM],IC50 (NDM-1) [nM],IC50 (VIM-1) [nM],NDM1 EC30016 MITC95 [1] [µM],VIM1 KP599644 MITC95 [2] [µM],IMP1 SM5741 MITC95 [3] [µM]
"CC(C)C[C@H](C(=O)O)[C@H](Cc1ccc(N2CCCC(C(C)(C)N)C2)nc1)c1nnn[nH]1 (stereo partly drawn) [Example 322, (2S)-2-[(1S)-2-{6-[3-(1-amino-1-methylethyl)piperidin-1-yl]pyridin-3-yl}-1-(1H-tetrazol-5-yl)ethyl]-4-methylpentanoic acid]",550,340,11,18.8,50,25
"CC(C)C[C@H](C(=O)O)[C@H](Cc1ccc(NCC2CNCCC2O)nc1)c1nnn[nH]1 (stereo partly drawn) [Example 323, (2S)-2-[(1S)-2-(6-{[(4-hydroxypiperidin-3-yl)methyl]amino}pyridin-3-yl)-1-(1H-tetrazol-5-yl)ethyl]-4-methylpentanoic acid]",930,120,17,1.6,18.8,6.2
"CC(C)C[C@H](C(=O)O)[C@H](Cc1ccc(N2CC(C)(CN)C2)nc1)c1nnn[nH]1 [Example 325, (2S)-2-[(1S)-2-{6-[3-(aminomethyl)-3-methylazetidin-1-yl]pyridin-3-yl}-1-(1H-tetrazol-5-yl)ethyl]-4-methylpentanoic acid]",4400,1100,36,12.5,75,75
"CC(C)C[C@H](C(=O)O)[C@H](Cc1ccc(N2CC(CCN)C2)nc1)c1nnn[nH]1 [Example 326, (2S)-2-[(1S)-2-{6-[3-(2-aminoethyl)azetidin-1-yl]pyridin-3-yl}-1-(1H-tetrazol-5-yl)ethyl]-4-methylpentanoic acid]",> 20000,6400,29,50,6.2,>200
"CC(C)C[C@H](C(=O)O)[C@H](Cc1ccc(N2CC(N)C2)nc1)c1nnn[nH]1 [Example 327, (2S)-2-[(1S)-2-[6-(3-aminoazetidin-1-yl)pyridin-3-yl]-1-(1H-tetrazol-5-yl)ethyl]-4-methylpentanoic acid]",2600,470,17,9.4,38,38
"CC(C)C[C@H](C(=O)O)[C@H](Cc1ccc(N2CC3(CNC(=O)C3)C2)nc1)c1nnn[nH]1 [Example 328, (2S)-4-methyl-2-[(1S)-2-[6-(7-oxo-2,6-diazaspiro[3.4]oct-2-yl)pyridin-3-yl]-1-(1H-tetrazol-5-yl)ethyl]pentanoic acid]",1100,260,12,9.4,50,50
"CC(C)C[C@H](C(=O)O)[C@H](Cc1ccc(N2CC(N3CCOCC3)C2)nc1)c1nnn[nH]1 [Example 329, (2S)-4-methyl-2-[(1S)-2-[6-(3-morpholin-4-ylazetidin-1-yl)pyridin-3-yl]-1-(1H-tetrazol-5-yl)ethyl]pentanoic acid]",450,170,49,12.5,>200,25
"CC(C)C[C@H](C(=O)O)[C@H](Cc1ccc(N2CC(CO)(CO)C2)nc1)c1nnn[nH]1 [Example 330, (2S)-2-[(1S)-2-{6-[3,3-bis(hydroxymethyl)azetidin-1-yl]pyridin-3-yl}-1-(1H-tetrazol-5-yl)ethyl]-4-methylpentanoic acid]",400,100,22,16,100,25
"CC(C)C[C@H](C(=O)O)[C@H](Cc1ccc(N2CC(C(C)(C)O)C2)nc1)c1nnn[nH]1 [Example 331, (2S)-2-[(1S)-2-{6-[3-(1-hydroxy-1-methylethyl)azetidin-1-yl]pyridin-3-yl}-1-(1H-tetrazol-5-yl)ethyl]-4-methylpentanoic acid]",340,130,49,9.4,100,18.8
"CC(C)C[C@H](C(=O)O)[C@H](Cc1ccc(N2CC(N3CCN(C)CC3)C2)nc1)c1nnn[nH]1 [Example 332, (2S)-4-methyl-2-[(1S)-2-{6-[3-(4-methylpiperazin-1-yl)azetidin-1-yl]pyridin-3-yl}-1-(1H-tetrazol-5-yl)ethyl]pentanoic acid]",540,160,24,4.7,50,12.5
"CC(C)C[C@H](C(=O)O)[C@H](Cc1ccc(N2CC(CCO)C2)nc1)c1nnn[nH]1 [Example 333, (2S)-2-[(1S)-2-{6-[3-(2-hydroxyethyl)azetidin-1-yl]pyridin-3-yl}-1-(1H-tetrazol-5-yl)ethyl]-4-methylpentanoic acid]",170,58,8.2,1.6,38,12.5
"CC(C)C[C@H](C(=O)O)[C@H](Cc1ccc(N2CC(S(C)(=O)=O)C2)nc1)c1nnn[nH]1 [Example 335, (2S)-4-methyl-2-[(1S)-2-{6-[3-(methylsulfonyl)azetidin-1-yl]pyridin-3-yl}-1-(1H-tetrazol-5-yl)ethyl]pentanoic acid]",56,59,4.9,6.2,75,3.1
"CC(C)C[C@H](C(=O)O)[C@H](Cc1ccc(N2CC3(CCNC3)C2)nc1)c1nnn[nH]1 [Example 336, (2S)-2-[(1S)-2-[6-(2,6-diazaspiro[3.4]oct-2-yl)pyridin-3-yl]-1-(1H-tetrazol-5-yl)ethyl]-4-methylpentanoic acid]",1200,180,20,3.1,25,25
"CC(C)C[C@H](C(=O)O)[C@H](Cc1ccc(N2CC3(CN(C)C(=O)O3)C2)nc1)c1nnn[nH]1 [Example 337, (2S)-4-methyl-2-[(1S)-2-[6-(7-methyl-6-oxo-5-oxa-2,7-diazaspiro[3.4]oct-2-yl)pyridin-3-yl]-1-(1H-tetrazol-5-yl)ethyl]pentanoic acid]",300,62,10,9.4,75,18.8
"CC(C)C[C@H](C(=O)O)[C@H](Cc1ccc(N2CC(O)(C(F)(F)F)C2)nc1)c1nnn[nH]1 [Example 338, (2S)-2-[(1S)-2-{6-[3-hydroxy-3-(trifluoromethyl)azetidin-1-yl]pyridin-3-yl}-1-(1H-tetrazol-5-yl)ethyl]-4-methylpentanoic acid]",200,110,38,31,150,9.4
"CCC[C@H](C(=O)O)[C@H](Cc1cccc(-c2cccnc2)c1)c1nn[nH]n1 [Example 339, (2S)-2-[(1S)-2-(3-pyridin-3-ylphenyl)-1-(2H-tetrazol-5-yl)ethyl]pentanoic acid]",160,3.6,1.4,18.8,38,6.2
"CCC[C@H](C(=O)O)[C@H](Cc1cccc(-c2ccnc(N3CCNCC3)c2)c1)c1nn[nH]n1 [Example 340, (2S)-2-[(1S)-2-[3-(2-piperazin-1-ylpyridin-4-yl)phenyl]-1-(2H-tetrazol-5-yl)ethyl]pentanoic acid]",180,46,3.5,38,50,4.7
"CCC[C@H](C(=O)O)[C@H](Cc1cccc(-c2cccc(C(N)=O)c2)c1)c1nn[nH]n1 [Example 341, (2S)-2-[(1S)-2-(3′-carbamoylbiphenyl-3-yl)-1-(2H-tetrazol-5-yl)ethyl]pentanoic acid]",110,6.6,0.99,18.8,18.8,2.3
"CCC[C@H](C(=O)O)[C@H](Cc1cccc(-c2ccc(N)nc2)c1)c1nn[nH]n1 [Example 342, (2S)-2-[(1S)-2-[3-(6-aminopyridin-3-yl)phenyl]-1-(2H-tetrazol-5-yl)ethyl]pentanoic acid]",170,4.7,1.1,6.2,12.5,3.1
